Assay results from US20130123355A1, “Fatty acids and metal ions compositions and uses thereof” (priority 2011, published 2013).

Assays:
[1] = intravenous infusion for 5 days; cited from earlier work
[2] = tested on: Patients presenting symptoms of bipolar disorder; test: Hamilton Depression Rating scale, Beck Depression Inventory and Young Mania Rating Scale in bipolar disorder; assay type: in vivo, human; conditions: 113 mg elemental Li 3 to 4 times a day for two weeks, with standard of care, compared with lithium carbonate or the fatty acid alone
[3] = tested on: C57BL/6J mice; test: d-amphetamine induced hyperlocomotion, supplemented diet; assay type: in vivo; conditions: about 15.5 mg/Kg/day elemental lithium, 0.5 mg/Kg d-amphetamine on days 0, 7, 14, 21, compared with the fatty acid alone or lithium chloride
Description: C57BL/6J mice are fed diet supplemented with Li-DHA, lithium chloride, or DHA. On Li-DHA or lithium chloride supplemented diet, mice consume, on an average, about 15.5 mg/Kg/day of elemental lithium, on a feeding schedule so as to maintain 85% of its free-feeding weight. […] On 0, 7, 14, and 21 days of starting the supplement diet, mice are injected with 0.5 mg/Kg d-amphetamine and observed for hyperlocomotion using automated video recording device.
C57BL/6J mice are fed diet supplemented with Li-DHA-lysoPC, lithium chloride, or DHA-lysoPC. On Li-DHA-lysoPC or lithium chloride supplemented diet, mice consume, on an average, about 15.5 mg/Kg/day of elemental lithium, on a feeding schedule so as to maintain 85% of its free-feeding weight. […] On 0, 7, 14, and 21 days of starting the supplement diet, mice are injected with 0.5 mg/Kg d-amphetamine and observed for hyperlocomotion using automated video recording device.
C57BL/6J mice are fed diet supplemented with Li-EPA, lithium chloride, or EPA. On Li-EPA or lithium chloride supplemented diet, mice consume, on an average, about 15.5 mg/Kg/day of elemental lithium, on a feeding schedule so as to maintain 85% of its free-feeding weight. […] On 0, 7, 14, and 21 days of starting the supplement diet, mice are injected with 0.5 mg/Kg d-amphetamine and observed for hyperlocomotion using automated video recording device.

[4] = Li levels in cerebrospinal fluid of rats fed Li compositions; assay type: in vivo, Sprague-Dawley rats; conditions: oral gavage, about 20 mg elemental Li per Kg per day for 3 weeks, compared with lithium carbonate
Description: Sprague-Dawley rats are fed various […] compositions by oral gavage so as to provide about 20 mg of elemental Li per Kg per day for 3 weeks. The lithium compositions include Li-DHA, Li-DHA-LysoPC and Li-EPA. Control rats were administered equivalent molar amount of Lithium carbonate. Cerebrospinal fluid is collected at the end of the treatment, and lithium is measured by atomic absorption spectroscopy.

[5] = tested on: Sprague-Dawley rats; test: Forced Swim Test; assay type: in vivo; conditions: diet, about 15.5 mg/Kg/day elemental lithium, compared with the fatty acid alone or lithium carbonate
Text: Sprague-Dawley rats are fed diet supplemented with Mg-DHA, Mg Citrate, or DHA. […] Various established parameters of antidepressant activity including reduced immobility time, increased swimming, and increased climbing behavior are quantitated to assess the antidepressant activity.
Sprague-Dawley rats are fed diet supplemented with Mg-DHA-LysoPC, Mg Citrate, or DHA-lysoPC. […] Various established parameters of antidepressant activity including reduced immobility time, increased swimming, and increased climbing behavior are quantitated to assess the antidepressant activity.
Sprague-Dawley rats are fed diet supplemented with Mg-EPA, Mg Citrate, or EPA. […] Various established parameters of antidepressant activity including reduced immobility time, increased swimming, and increased climbing behavior are quantitated to assess the antidepressant activity.
(§1) Sprague-Dawley rats are fed diet supplemented with Zn-DHA, Zinc gluconate, or DHA. On Zn-DHA or Zinc gluconate supplemented diet, rats consume about 1 mg/kg body weight/day of elemental zinc, on a feeding schedule so as to maintain 85% of its free-feeding weight. […] Various established parameters of antidepressant activity including reduced immobility time, increased swimming, and increased climbing behavior are quantitated to assess the antidepressant activity.
as §1, with “Zn-DHA-lysoPC, zinc” for “Zn-DHA, Zinc”, “Zn-DHA-lysoPC” for “Zn-DHA”, “zinc” for “Zinc”
as §1, with “Zn-EPA, zinc” for “Zn-DHA, Zinc”, “EPA.” for “DHA.”, “Zn-EPA” for “Zn-DHA”, “zinc” for “Zinc”
Sprague-Dawley rats are fed diet supplemented with Li-DHA, lithium carbonate, or DHA. […] Various established parameters of antidepressant activity including reduced immobility time, increased swimming, and increased climbing behavior are quantitated to assess the antidepressant activity.
Sprague-Dawley rats are fed diet supplemented with Li-DHA-lysoPC, lithium carbonate, or DHA. […] Various established parameters of antidepressant activity including reduced immobility time, increased swimming, and increased climbing behavior are quantitated to assess the antidepressant activity.
Sprague-Dawley rats are fed diet supplemented with Li-EPA, lithium carbonate, or EPA. […] Various established parameters of antidepressant activity including reduced immobility time, increased swimming, and increased climbing behavior are quantitated to assess the antidepressant activity.

[6] = tested on: Patients presenting symptoms of depression; test: Hamilton Depression Rating scale and Beck Depression Inventory in depression; assay type: in vivo, human; conditions: 113 mg elemental Li 3 to 4 times a day for two weeks, with standard of care, compared with lithium carbonate or the fatty acid alone
Description: Patients presenting symptoms of depression, in addition to being provided standard of care for depression, are prescribed Mg-DHA or Mg Citrate capsules formulated to provide 150 mg of elemental magnesium, or DHA capsules for two weeks when recovery from depression is assessed.
Patients presenting symptoms of depression, in addition to being provided standard of care for depression, are prescribed Mg-DHA-LysoPC or Mg Citrate capsules formulated to provide 150 mg of elemental magnesium, or DHA-LysoPC capsules for two weeks when recovery from depression is assessed.
Patients presenting symptoms of depression, in addition to being provided standard of care for depression, are prescribed Mg-EPA or Mg Citrate capsules formulated to provide 150 mg of elemental magnesium, or EPA capsules for two weeks when recovery from depression is assessed.
(§2) Patients presenting symptoms of depression, in addition to being provided standard of care for depression, are prescribed Zn-DHA or zinc gluconate capsules formulated to provide a daily dosage of 30 mg of elemental zinc, or DHA capsules for two weeks when recovery from depression is assessed.
as §2, with “Zn-DHA-LysoPC” for “Zn-DHA”, “DHA-LysoPC” for “DHA”
Patients presenting symptoms of depression, in addition to being provided standard of care for depression, are prescribed Zn-EPA or zinc gluconate capsules that provide a daily dosage of 30 mg of elemental Zn, or EPA capsules for two weeks when recovery from depression is assessed.

[7] = tested on: C57BL/6J mice; test: d-amphetamine induced hyperlocomotion, acute injection; assay type: in vivo; conditions: injected 15.5 mg/Kg elemental lithium fifteen minutes after d-amphetamine (0.5 mg/Kg), observed 120 minutes, compared with the fatty acid alone or lithium chloride
Description: C57BL/6J mice are injected with d-amphetamine (0.5 mg/Kg) and increased locomotion is measured. Fifteen minutes later, Li-DHA, or lithium chloride dose is injected to deliver 15.5 mg/Kg elemental lithium. […] Subsequently, the mice are observed for hyperlocomotion for the next 120 minutes using automated video recording device.
C57BL/6J mice are injected with d-amphetamine (0.5 mg/Kg) and increased locomotion is measured. Fifteen minutes later, Li-DHA-lysoPC, or lithium chloride dose is injected to deliver 15.5 mg/Kg elemental lithium. […] Subsequently, the mice are observed for hyperlocomotion for the next 120 minutes using automated video recording device.
C57BL/6J mice are injected with d-amphetamine (0.5 mg/Kg) and increased locomotion is measured. Fifteen minutes later, Li-EPA, or lithium chloride dose is injected to deliver 15.5 mg/Kg elemental lithium. […] Subsequently, the mice are observed for hyperlocomotion for the next 120 minutes using automated video recording device.

Row | SMILES | Mg levels in the brain [1] | increase of blood levels of magnesium [1] [fold] | Hamilton Depression Rating scale, Beck Depression Inventory and Young Mania Rating Scale scores [2] | induced hyperlocomotion [3] | CSF levels of lithium [4] | immobility time [5] | swimming and climbing behavior [5] | Hamilton Depression Rating scale and Beck Depression Inventory scores [6] | induced hyperlocomotion [7]
1 | O=S(=O)([O-])[O-].[Mg+2] [magnesium sulfate] | failed to increase | 3 |  |  |  |  |  |  | 
2 | CC/C=C\C/C=C\C/C=C\C/C=C\C/C=C\CCCC(=O)[O-].[Li+] [Li-EPA] |  |  | statistically significant improvement | lower levels | higher | reduction | significant increase | statistically significant improvement | lower levels
3 | CC/C=C\C/C=C\C/C=C\C/C=C\C/C=C\C/C=C\CCC(=O)[O-].[Li+] [Li-DHA] |  |  | statistically significant improvement | lower levels | higher | reduction | significant increase | statistically significant improvement | lower levels
